Test [1] addresses Mitogen-activated protein kinase 10 (Homo sapiens, UniProt P53779). As to the kind of experiment: Kinase Assay. Particulars: 37 °C. As to the method: (§1) The p38alpha reaction was carried out by using kinase (12ng per well), ATP (100uM) and incubated for 60 min at 37 C. For the JNK3 assay, kinase (10ng per well), ATP (1uM) and 45 min of incubation time at 37 C were used.
Test [2] concerns the target Mitogen-activated protein kinase 14 (Homo sapiens, UniProt Q16539). As to the kind of experiment: Kinase Assay. The conditions noted are these: 37 °C. As to the method: as §1

Mitogen-activated protein kinase 10, sequence (P53779 whole entry): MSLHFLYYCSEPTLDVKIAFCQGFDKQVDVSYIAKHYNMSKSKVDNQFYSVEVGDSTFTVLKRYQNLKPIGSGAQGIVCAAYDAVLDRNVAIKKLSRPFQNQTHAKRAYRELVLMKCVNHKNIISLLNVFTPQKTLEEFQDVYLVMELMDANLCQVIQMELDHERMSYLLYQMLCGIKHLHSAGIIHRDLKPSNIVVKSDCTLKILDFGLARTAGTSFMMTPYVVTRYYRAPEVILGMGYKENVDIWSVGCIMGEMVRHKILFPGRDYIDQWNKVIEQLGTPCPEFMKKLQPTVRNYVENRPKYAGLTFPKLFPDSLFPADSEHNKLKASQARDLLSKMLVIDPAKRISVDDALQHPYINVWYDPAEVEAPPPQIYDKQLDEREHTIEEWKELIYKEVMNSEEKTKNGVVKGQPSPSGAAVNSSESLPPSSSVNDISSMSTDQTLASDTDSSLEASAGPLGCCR
Mitogen-activated protein kinase 14, sequence (Q16539 whole entry): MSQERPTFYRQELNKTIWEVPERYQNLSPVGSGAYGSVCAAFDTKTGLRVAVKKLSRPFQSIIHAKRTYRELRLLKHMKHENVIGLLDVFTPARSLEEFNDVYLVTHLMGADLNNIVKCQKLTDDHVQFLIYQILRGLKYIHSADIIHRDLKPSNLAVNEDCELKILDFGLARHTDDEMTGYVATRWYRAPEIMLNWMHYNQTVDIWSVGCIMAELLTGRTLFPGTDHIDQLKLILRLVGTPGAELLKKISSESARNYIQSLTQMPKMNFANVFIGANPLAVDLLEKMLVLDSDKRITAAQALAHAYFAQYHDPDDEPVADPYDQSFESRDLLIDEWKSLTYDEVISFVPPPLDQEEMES

In the case of `O=c1c(O)c(-c2cc(O)c(O)c(O)c2)oc2cc(O)cc(O)c12`, the IC50 stood at 2.24 µM in test [1] and 1.64 µM in test [2]. For the compound `COc1cc(-c2oc3cc(O)cc(O)c3c(=O)c2O)ccc1O`, the IC50 in test [1] amounted to 6.3 µM; in test [2], 20.1 µM. For the compound `COc1c(O)cc2oc(-c3ccc(O)c(O)c3)cc(=O)c2c1O`, the IC50 in test [1] was determined as 15.9 µM; in test [2], 22.2 µM. For the compound `Oc1cc(O)c2c(c1)O[C@H](c1ccc(O)c(O)c1)[C@H](O)C2`, the IC50 came out at 89.5 µM in test [1] and 67.6 µM in test [2].

As for `O=c1cc(-c2ccc(O)c(O)c2)oc2cc(O[C@@H]3O[C@H](CO)[C@@H](O)[C@H](O)[C@H]3O)cc(O)c12`, the results for the IC50 in test [1] and in test [2] were 2.45 µM and 87.1 µM, respectively. Turning to `O=c1c(O)c(-c2ccc(O)cc2)oc2cc(O)cc(O)c12`, the IC50 in test [1] turned out to be 19.1 µM; in test [2], 18.4 µM. `C[C@@H]1O[C@@H](Oc2c(-c3ccc(O)c(O)c3)oc3cc(O)cc(=O)c-3c2O)[C@H](O)[C@H](O)[C@H]1O`: the IC50 was found to be 20.2 µM in test [1] and 28.1 µM in test [2]. The corresponding values for `O=c1c(O)c(-c2ccc(O)cc2O)oc2cc(O)cc(O)c12` [2-(2,4-dihydroxyphenyl)-3,5,7-trihydroxychromen-4-one] are 26.8 µM and 11.4 µM. For `O=c1c(O)c(-c2ccc(O)c(O)c2)oc2cc(O)cc(O)c12` [2-(3,4-dihydroxyphenyl)-3,5,7-trihydroxy-chromone;hydrate], in that order: 2.31 µM and 3.45 µM. On to `O=c1c(O)c(-c2ccc(O)c(O)c2)oc2cc(O)ccc12` [2-(3,4-dihydroxyphenyl)-3,7-dihydroxy-chromen-4-one], for which the values for the IC50 in test [1] and in test [2] were 2.6 µM and 2.7 µM, respectively.

`O=c1cc(-c2ccc(O)c(O)c2)oc2cc(O)cc(O)c12` [2-(3,4-dihydroxyphenyl)-5,7-dihydroxy-4H-chromen-4-one]: the IC50 is 2.3 µM in test [1] and 18 µM in test [2]. As to `COc1cc(O)c2c(=O)c(OC)c(-c3ccc(O)c(O)c3)oc2c1` [3',4',5-trihydroxy-3,7-dimethoxyflavone], the IC50 was 7.7 µM in test [1] and 12.3 µM in test [2]. `C[C@@H]1O[C@@H](OC[C@H]2O[C@@H](Oc3c(-c4ccc(O)c(O)c4)oc4cc(O)cc(O)c4c3=O)[C@H](O)[C@@H](O)[C@@H]2O)[C@H](O)[C@H](O)[C@H]1O` [3-Rhamnoglucosylquercetin] registered an IC50 in test [2] of 65.9 µM. In turn, `COc1ccc(-c2cc(=O)c3c(O)c(OC)c(O)cc3o2)cc1` [4,5-Dihydroxy-6-methoxy-2-(4-methoxy-phenyl)-chromen-7-one] had an IC50 in test [2] of 32.4 µM. As to `COc1c(O)cc2oc(-c3ccc(O)cc3)cc(=O)c2c1O` [5,7-dihydroxy-2-(4-hydroxyphenyl)-6-methoxy-4H-chromen-4-one], the IC50 was found to be 34.8 µM in test [1] and 18.6 µM in test [2]. For `COc1ccc(-c2cc(=O)c3c(O)cc(O)cc3o2)cc1` [5,7-dihydroxy-2-(4-methoxyphenyl)-4H-chromen-4-one], the IC50 in test [1] stood at 5.78 µM; in test [2], 50 µM.

As to `O=c1cc(-c2ccccc2)oc2cc(O)cc(O)c12` [5,7-dihydroxy-2-phenyl-4H-chromen-4-one], the IC50 stood at 11.8 µM in test [1] and 39.9 µM in test [2]. The compound `COc1ccc(-c2cc(=O)c3c(O)cc(OC)cc3o2)cc1` [5-hydroxy-7-methoxy-2-(4-methoxyphenyl)-4H-chromen-4-one] came in with a half-inhibitory concentration (IC50) in test [2] of 27.8 µM. On to `COc1c(O)cc2oc(-c3ccc(O)cc3)c(O)c(=O)c2c1O` [6-methoxy kaempferol], for which the figures for the IC50 in test [1] and in test [2] were 22.4 µM and 17.2 µM, respectively. On to `COc1ccc([C@@H]2CC(=O)c3c(O)cc(O)cc3O2)cc1O` [(2S)-5,7-dihydroxy-2-(3-hydroxy-4-methoxyphenyl)-3,4-dihydro-2H-1-benzopyran-4-one], for which, in test [2], the IC50 turned out to be 54.6 µM. As for `Oc1cc(O)c2c(c1)O[C@H](c1cc(O)c(O)c(O)c1)[C@@H](O)C2` [(+)-gallocatechin], the figures for the 50% inhibitory concentration (IC50) in test [1] and in test [2] were 5.3 µM and 3.53 µM, respectively. For `COc1cc(-c2cc(=O)c3c(O)c(OC)c(O)cc3o2)ccc1O` [Jaceosidin], in that order: 19.1 µM and 18.9 µM. The corresponding values for `COc1ccc(-c2oc3cc(O)cc(O)c3c(=O)c2O)cc1` [Kaempferide] are 52.5 µM and 32.9 µM.

With `COc1cc(O)c2c(=O)c(O)c(-c3ccc(OC)c(O)c3)oc2c1` [Kaempferol-7,4'-dimethylether], the IC50 in test [1] was found to be 55.4 µM; in test [2], 3.98 µM. Regarding `O=c1cc(-c2ccc(O)c(O)c2)oc2c([C@@H]3O[C@H](CO)[C@@H](O)[C@H](O)[C@H]3O)c(O)cc(O)c12` [Luteolin 8-C-glucoside], the half-inhibitory concentration (IC50) in test [1] came out at 38.2 µM; in test [2], 55.7 µM.

`COc1cc(O)c2c(=O)cc(-c3ccc(OC)c(OC)c3)oc2c1` [Luteolin-7,3',4'-trimethylether] gave an IC50 in test [2] of 33.2 µM.

For `O=c1cc(-c2ccc(O)cc2)oc2cc(O)cc(O)c12` [Naringenin, 18], the IC50 was 2.2 µM in test [1] and 14.3 µM in test [2]. For `COc1ccc(-c2cc(=O)c3c(O)c(OC)c(O)c(OC)c3o2)cc1` [Nevadensin], in that order: 16.3 µM and 23.9 µM.

Regarding `COc1c(O)cc2oc(-c3ccc(O)c(O)c3)c(O)c(=O)c2c1O` [Patuletin], the IC50 in test [1] worked out at 60.9 µM; in test [2], 16.3 µM.

Compound `O=c1c(-c2ccc(O)cc2)coc2cc(O)cc(O)c12` [Prunetol] showed a half-maximal inhibitory concentration (IC50) in test [2] of 61.4 µM.

Regarding `O=c1cc(O)cc2oc(-c3ccc(O)c(O)c3)c(O[C@@H]3O[C@H](CO)[C@@H](O)[C@H](O)[C@H]3O)c(O)c1-2` [Quercetin 3-O-beta-D-glucoside], the IC50 in test [1] turned out to be 21.7 µM; in test [2], 51.3 µM. Turning to `COc1cc(O)c2c(=O)cc(-c3ccc(O)c(OC)c3)oc2c1` [Velutin], the figures for the IC50 in test [1] and in test [2] were 7.8 µM and 52.5 µM, respectively.

(Values after BindingDB's records for doi:10.1002/cbic.201000487 (Eberhard Karls University of Tuebingen, 2010).)
